# Experimental data: patent US20020162794A1, “Anaerobic digestion” (priority 2001, published 2002)
# Where “and” joins values, the source holds several entries; their conditions need not be identical. Equal entries are not always repeated.
# Tests used:
# [1] = system: bacteria of the mixed anaerobic digester culture; experiment: Bacterial colony counts from formate bioreactors; assay type: cell-based
# Experimental: Procedure for Bacterial Colony Counts from Formate Bioreactors
# 1. Collect samples from each bioreactor in sterile 30-mL glass vials with screw caps.
# 2. All subsequent operations are performed aseptically in the anaerobic chamber under an atmosphere of 3% H2/7% CO2/90% N2.
# 4. Seed 0.1-mL samples form the dilution blanks into tryptic soy agar plates.
# 5. Inoculate three plates for each dilution. Final dilutions on the plates are 10^−3 and 10^−4
# 6. Incubate all plates anaerobically for 3-4 days at room temperature (approximately 25° C.) prior to manually counting the numbers of colonies on each plate.
# 7. Calculate the numbers of colony-forming units (CFU) per ml in the original samples.
# [2] = system: mixed culture from a publicly owned anaerobic digester; experiment: Identification of predominant colony types in the mixed culture; assay type: cell-based
compound,measurement,setting,value
O=C[O-].[Na+] [sodium formate],bacterial counts,"[1]; 100 ppm to 100,000 ppm, lower counts at higher concentrations",> 10^5 CFU per milliliter
same,Colony forming units per mL,"[1]; 5000 ppm, reactor 3",0.59 × 10^7 per mL
same,Colony forming units per mL,"[1]; 10000 ppm, single reactors (2, 4, 5)",0.26 × 10^7 per mL and 0.19 × 10^7 per mL and 0.38 × 10^7 per mL
same,colony types identified,[2]; 10% level,only Cellulomonas cellulans was identified along with large masses of yeast cells
same,bio-diversity of the mixed culture,[2]; 1000-5000 ppm,increase the bio-diversity of the mixed culture
same,number of predominant colony types,"[2]; 1000 ppm, control had two",eight
same,growth of colonies in the mixed culture,[2]; lower levels (≦5000 ppm),facilitate growth of some of the more dormant colonies in the mixed culture
